In ChEMBL document CHEMBL1201862, “PubChem BioAssay data set” (2004):
“And” between values parts separate entries of the source, which are not always exact repeats. Identical values can stand only once.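 Briefly, cells in 96-well plates were exposed to five compound concentrations for 48 h, and endpoints were estimated by linear interpolation. GI50 = concentration required for 50% inhibition of growth.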 The source made the active and inactive calls. No stated cut-off is given here; in the data, active = GI50 up to about 1.1 µM and inactive = higher.

How the values were obtained:
Experiment in all cases: inhibition of tumour cell growth, NCI panel, 48 h
[1] = test system: UACC-257
[2] = test system: SF-539
[3] = test system: IGROV-1
[4] = test system: MDA-MB-435
[5] = test system: MDA-N
[6] = test system: NCI/ADR-RES
[7] = test system: A498
[8] = test system: Hs-578T
[9] = test system: OVCAR-4
[10] = test system: U-251
[11] = test system: MDA-MB-231
[12] = test system: SN12C
[13] = test system: BT-549
[14] = test system: PC-3
[15] = test system: MCF7
[16] = test system: DU-145
[17] = test system: 786-0
[18] = test system: RXF 393
[19] = test system: T47D

Compound | GI50 [1] | GI50 [2] | GI50 [3] | GI50 [4] | GI50 [5] | GI50 [6] | GI50 [7] | GI50 [8] | GI50 [9] | GI50 [10] | GI50 [11] | GI50 [12] | GI50 [13] | GI50 [14] | GI50 [15] | GI50 [16] | GI50 [17] | GI50 [18] | GI50 [19]
C1=N\CCOCC/N=C\c2ccc(cc2)OCc2cccc(n2)COc2ccc/1cc2 | > 100 µM (inactive) | > 100 µM (inactive) | > 100 µM (inactive) | > 100 µM (inactive) | > 100 µM (inactive) | > 100 µM (inactive) | > 100 µM (inactive) | > 100 µM (inactive) | > 100 µM (inactive) | > 100 µM (inactive) | 54.6 µM (inactive) | > 100 µM (inactive) | > 100 µM (inactive) | > 100 µM (inactive) | 85.5 µM (inactive) | > 100 µM (inactive) | > 100 µM (inactive) | > 100 µM (inactive) | –
NC(=O)CCC(NC(=O)c1c2ccccc2nc2ccccc12)C(=O)O (centres undefined) | > 100 µM (inactive) | > 100 µM (inactive) | > 100 µM (inactive) | > 100 µM (inactive) | > 100 µM (inactive) | > 100 µM (inactive) | > 100 µM (inactive) | – | > 100 µM (inactive) | > 100 µM (inactive) | > 100 µM (inactive) | > 100 µM (inactive) | > 100 µM (inactive) | > 100 µM (inactive) | > 100 µM (inactive) | > 100 µM (inactive) | > 100 µM (inactive) | – | –
COCCCNc1nc(N)c(C#N)c(C#N)c1C#N | – | > 10 µM (inactive) | > 10 µM (inactive) | > 10 µM (inactive) | > 10 µM (inactive) | > 10 µM (inactive) | > 10 µM (inactive) | > 10 µM (inactive) | > 10 µM (inactive) | > 10 µM (inactive) | > 10 µM (inactive) | > 10 µM (inactive) | – | > 10 µM (inactive) | > 10 µM (inactive) | > 10 µM (inactive) | – | > 10 µM (inactive) | > 10 µM (inactive)
CC1=C2C(O)C(C(C)C(=O)NC(C)C)CCC2(C)C=CC1=O (centres undefined) | > 100 µM (inactive) | > 100 µM (inactive) | > 100 µM (inactive) | – | – | > 100 µM (inactive) | > 100 µM (inactive) | – | > 100 µM (inactive) | > 100 µM (inactive) | – | > 100 µM (inactive) | – | – | > 100 µM (inactive) | – | – | > 100 µM (inactive) | –
O=S(=O)(O)c1cc(O)c(/N=N/c2ccc(O)cc2O)c2ccccc12 | > 100 µM (inactive) | – | 22.8 µM (inactive) | 51.3 µM (inactive) | > 100 µM (inactive) | 38.6 µM (inactive) | – | > 100 µM (inactive) | > 100 µM (inactive) | > 100 µM (inactive) | 85.7 µM (inactive) | > 100 µM (inactive) | – | 53.5 µM (inactive) | – | – | > 100 µM (inactive) | > 100 µM (inactive) | –
COc1ccc(NC(=O)CC(=O)N2N=C(N3c4ccccc4Sc4ccccc43)CC2c2ccccc2)cc1 (centres undefined) | > 100 µM (inactive) | > 100 µM (inactive) | > 100 µM (inactive) | > 100 µM (inactive) | – | > 100 µM (inactive) | – | 39.7 µM (inactive) | > 100 µM (inactive) | > 100 µM (inactive) | > 100 µM (inactive) | > 100 µM (inactive) | > 100 µM (inactive) | > 100 µM (inactive) | > 100 µM (inactive) | > 100 µM (inactive) | > 100 µM (inactive) | > 100 µM (inactive) | > 100 µM (inactive)
O=C(N/N=C/c1cc(Br)cc(Br)c1O)c1ccccc1O | 2.26 µM (inactive) | 0.61 µM (active) | 0.867 µM (active) | – | – | – | – | – | 0.267 µM (active) | 0.399 µM (active) | – | – | – | – | – | – | – | 0.929 µM (active) | –
COC(=O)c1cc(-c2cccn2C)c2c(c1C(=O)OC)c1ccccc1n2C | 82 µM (inactive) | 43.8 µM (inactive) | > 100 µM (inactive) | – | – | – | – | – | 37.8 µM (inactive) | 70.5 µM (inactive) | – | > 100 µM (inactive) | – | – | – | – | > 100 µM (inactive) | > 100 µM (inactive) | –
O=[N+]([O-])c1cccc(-c2ccc([C@H]3CC(c4ccc(Cl)cc4)=NN3)o2)c1 | 31.7 µM (inactive) | – | 21 µM (inactive) | 19.2 µM (inactive) | 24 µM (inactive) | 7.83 µM (inactive) | 31.6 µM (inactive) | 58.9 µM (inactive) | 23.2 µM (inactive) | – | – | 16.7 µM (inactive) | 17.6 µM (inactive) | – | 16.3 µM (inactive) | 15.3 µM (inactive) | 14.6 µM (inactive) | 16.8 µM (inactive) | 11.4 µM (inactive)
Oc1ccc2ccccc2c1/N=N/c1ccccc1 | > 100 µM (inactive) | > 100 µM (inactive) | > 69.2 µM (inactive) | > 100 µM (inactive) | > 100 µM (inactive) | > 100 µM (inactive) | > 100 µM (inactive) | > 57.3 µM (inactive) and 35.4 µM (inactive) | > 70.5 µM (inactive) and 45.2 µM (inactive) | 51.9 µM (inactive) and > 56 µM (inactive) | 54.5 µM (inactive) and > 82.4 µM (inactive) | > 100 µM (inactive) | > 100 µM (inactive) | > 87.9 µM (inactive) | > 100 µM (inactive) | > 100 µM (inactive) | – | > 100 µM (inactive) | –
CON(C)c1nc(N(C)OC)nc(N(C)OC)n1 | – | > 10 µM (inactive) | > 10 µM (inactive) | > 10 µM (inactive) | > 10 µM (inactive) | > 10 µM (inactive) | > 10 µM (inactive) | > 10 µM (inactive) | > 10 µM (inactive) | > 10 µM (inactive) | > 10 µM (inactive) | > 10 µM (inactive) | – | > 10 µM (inactive) | > 10 µM (inactive) | > 10 µM (inactive) | – | > 10 µM (inactive) | > 10 µM (inactive)
CCN1CCC(O)(C(C(=O)O)c2ccccc2)CC1 (centres undefined) | > 100 µM (inactive) | – | > 100 µM (inactive) | > 100 µM (inactive) | – | > 100 µM (inactive) | > 100 µM (inactive) | > 100 µM (inactive) | > 100 µM (inactive) | > 100 µM (inactive) | > 100 µM (inactive) | – | > 100 µM (inactive) | > 100 µM (inactive) | > 100 µM (inactive) | > 100 µM (inactive) | – | > 100 µM (inactive) | > 100 µM (inactive)
N#C/C(=C/n1c(=S)[nH]c2ccc([N+](=O)[O-])cc21)C(N)=O | > 100 µM (inactive) | > 100 µM (inactive) | > 100 µM (inactive) | > 100 µM (inactive) | > 100 µM (inactive) | > 100 µM (inactive) | – | > 100 µM (inactive) | > 100 µM (inactive) | > 100 µM (inactive) | > 100 µM (inactive) | > 100 µM (inactive) | – | > 100 µM (inactive) | > 100 µM (inactive) | > 100 µM (inactive) | > 100 µM (inactive) | > 100 µM (inactive) | –
N#Cc1c(OCCF)c2ccccc2n2c1nc1ccccc12 | 93.3 µM (inactive) | 16.9 µM (inactive) | 23.8 µM (inactive) | 46.5 µM (inactive) | > 100 µM (inactive) | 45.3 µM (inactive) | 1.94 µM (inactive) | 17.3 µM (inactive) | 32.3 µM (inactive) | 37.6 µM (inactive) | > 100 µM (inactive) | – | – | 59.2 µM (inactive) | 16.6 µM (inactive) | 79.8 µM (inactive) | – | 17.3 µM (inactive) | > 100 µM (inactive)
